In PMC6425379, “Pharmacokinetic Study and Tissue Distribution of Lorlatinib in Mouse Serum and Tissue Samples by Liquid Chromatography-Mass Spectrometry” (Journal of Analytical Methods in Chemistry, 2019):
Read-outs that look alike come from different tables or passages of the source.

Legend:
[1] = Tissue distribution of lorlatinib in mice after oral administration (LC-MS/MS); type: in vivo, Kun Ming mice; conditions: 10 mg/kg; for concentration at 0.5 h: Kun Ming, mouse
Description: (§1) All the animal-related experiments were performed in accordance with guidelines of Institutional Experimental Animal Ethical Committee. Kun Ming mice (18–20 g) were obtained from the Beijing HFK Bioscience Co., Ltd. (Beijing, China). All mice were given free access to normal diet and water during the experiment with an exception that mice were fasted for 12 h prior to drug administration.
Tissue samples were weighed, and methanol was added to tissue samples at a ratio of methanol: tissue = 2 mL: 100 mg. Subsequently, tissue samples were homogenized using a high-throughput tissue homogenizer and vortex-mixed for 3 min. Supernatant was obtained by centrifuging at 11,000 rpm for 15 min. Then, 400 μL of 40 ng/mL IS solution was added to 100 μL supernatant. After vortex-mixing, supernatant was isolated by centrifugation.
(§2) The mice were orally administered with 10 mg/kg lorlatinib. Blood and tissue samples were collected from mice at 0.5, 1, 2, 4, 8, and 24 h after administration. The blood samples were transferred into glass containers and clotted at room temperature for 1 h. Once the clot was formed, blood sample was centrifuged at 4,000 rpm for 10 min, and supernatant was collected. The serum was transferred into another tube and stored at −80°C prior to further analysis. Tissue samples were rinsed by physiological saline, and then excess physiological saline was blotted up. The tissue samples were transferred into PP plastic bags and stored at −80°C until further detection.
(§3) The pharmacokinetic parameters of lorlatinib were estimated with noncompartment model by DAS (Data Analysis System) software (version 3.0, BioGuider Co., Shanghai, China). Moment analysis was used as a noncompartmental approach to obtain various pharmacokinetic parameters. Noncompartmental approach allowed the estimation of pharmacokinetic parameters without assuming any structural properties of the pharmacokinetic behavior of lorlatinib. The area under the curve (AUC) and the first moment curve (AUMC) were calculated by using the linear trapezoidal method, which is required by FDA. The half-life (t1/2) was estimated as MRT multiplied by 0.693. Cmax was defined as maximal concentration, and Tmax was defined as the time at which the Cmax was observed. The tissue distribution was described by quantifying lorlatinib in various tissues at 0.5, 1, 2, 4, 8, and 24 h after administration. All data were summarized to calculate means and standard deviations, and then the concentration-time curve was plotted.

[2] = Pharmacokinetic study of lorlatinib in mouse serum after oral administration (LC-MS/MS, noncompartmental model); type: in vivo, Kun Ming mice; conditions: mice, 10 mg/kg
Description: as §1
In order to make all serum samples fall within the range suitable for testing, 10 μL of serum sample was diluted to 100 μL with blank serum. The diluted serum sample was evenly mixed using vortex-mixing. A mixture sample was prepared by adding 200 μL of IS working solution (10 ng/mL) to 20 μL of diluted serum sample, and the mixture was vortex-mixed for 3 min. In order to extract lorlatinib, the supernatant was obtained by centrifugation (11,000 rpm, 15 min, 4°C). Then, 100 μL of supernatant was diluted to 200 μL with purified water, and the mixture was immediately vortex-mixed for 3 min.
as §2, §3

time at which the maximum concentration appeared in each tissue ([1]; each tissue): 0.5 h
concentration at 0.5 h ([1]; brain, read-out: concentration in brain): 1850 ng/g
concentration at 0.5 h ([1]; heart, read-out: concentration in heart): 3670 ng/g
concentration at 0.5 h ([1]; kidney, read-out: concentration in kidney): 5490 ng/g
concentration at 0.5 h ([1]; large intestine, read-out: concentration in large intestine): 2900 ng/g
concentration at 0.5 h ([1]; liver, read-out: concentration in liver): 31500 ng/g
concentration at 0.5 h ([1]; lung, read-out: concentration in lung): 3090 ng/g
concentration at 0.5 h ([1]; small intestine, read-out: concentration in small intestine): 5410 ng/g
concentration at 0.5 h ([1]; spleen, read-out: concentration in spleen): 2470 ng/g
concentration at 0.5 h ([1]; stomach, read-out: concentration in stomach): 21600 ng/g
concentration at 24 h ([2]; Kun Ming, mouse, 24 h after administration): 20.9 ± 1.07 ng/mL
Cmax ([2]; Kun Ming, mouse, n=8, mean): 2710 ng/mL
Tmax ([2]; Kun Ming, mouse, n=8, mean): 0.625 h
half-life ([2]; Kun Ming, mouse, n=8, mean, read-out: t1/2z (converted)): 3.26 h
maximal serum concentration ([2]; mean ± SD): 2,705.683 ± 539.779 μg/L
AUC(0–∞) ([2]; n=8, mean): 16208.177 ug/L ∗ h
AUMC(0–∞) ([2]; n=8, mean): 78840.738 h ∗ h ∗ ug/L
SMILES: C[C@H]1Oc2cc(cnc2N)-c2c(nn(C)c2C#N)CN(C)C(=O)c2ccc(F)cc21 [Lorlatinib]
